Read-outs that look alike come from different tables or passages of the source.
Legend:
δ-opioid receptor [1] = biological target: T1, δ-opioid receptor (Mus musculus, UniProt P32300); experiment: mouse vas deferens (MVD) bioassay; format: cell-based; conditions: Table 4
T1 construct: from tissue; host or cells: isolated mouse vas deferens
From the text: Bioorg. Med. Chem., 11: 675-678 (2003). The isolated tissues were suspended in organ baths containing balanced salt solutions in a physiological buffer, pH 7.5. […]

μ-opioid receptor [2] = biological target: μ-opioid receptor (Cavia porcellus, UniProt P97266); experiment: guinea pig ileum (GPI) bioassay; format: cell-based; conditions: Table 4
Protocol: The myenteric plexus longitudinal muscle preparations (2-3 cm segments) from the small intestine of male Hartley strain guinea pigs (GP1) measured μ-opioid receptor agonism and a single mouse vas deferens (MVD) was used to determine δ-opioid receptor agonism as described in Sasaki et al. Bioorg. […] The isolated tissues were suspended in organ baths containing balanced salt solutions in a physiological buffer, pH 7.5. Agonists were tested for the inhibition of electrically evoked contraction and expressed as IC50 (nM) obtained from the dose-response curves.

[3] = system: morphine-induced analgesia; experiment: inhibition of morphine-induced analgesia after intracerebroventricular administration; format: in vivo; conditions: mice
δ-opioid receptor [4] = biological target: T2, δ-opioid receptor (Rattus norvegicus, UniProt P33533); experiment: opioid receptor binding competition assay, rat brain P2 synaptosomal membranes (δ); conditions: Table 3; versus [3H]DPDPE; rat brain synaptosomes; read-out: Ki(δ)
T2 construct: from tissue; host or cells: rat brain P2 synaptosomal membranes (Sprague-Dawley)
Protocol: (§1) Synaptosomes were preincubated to remove endogenous opioids, washed in excess ice-cold buffer containing protease inhibitor and stored in a glycerol-containing buffer with protease inhibitor at −80° C. as described in Lazarus et al., J. Med. Chem. 34:1350-55 (1991). […] After incubation, the radiolabeled membranes were rapidly filtered on Whatman GF/C glass fiber filters presoaked in 0.1% polyethylenimine in order to optimize the signal-to-noise ratio, washed with ice-cold BSA buffer, and dried at 75-80° C. Radioactivity was determined using EcoLume (ICN, Costa Mesa, Calif.). All compounds were analyzed in duplicate using 5-8 peptide dosages and several synaptosomal preparations in independent repetitions to ensure statistical significance. The affinity constants (Ki) were calculated according to Cheng and Prusoff (Cheng et al., Biochem. Pharmacol., 22: 3099-3108 ([…])).

μ-opioid receptor [5] = biological target: T3, μ-opioid receptor (Rattus norvegicus, UniProt P33535); experiment: opioid receptor binding competition assay, rat brain P2 synaptosomal membranes (μ); conditions: Table 3
T3 construct: from tissue; host or cells: rat brain P2 synaptosomal membranes (Sprague-Dawley)
Protocol: as §1

δ-opioid receptor [6] = biological target: T2, δ-opioid receptor; conditions: Table 3; reference rows marked e, f, g (no SE, no n); cited from earlier work
μ-opioid receptor [7] = biological target: T3, μ-opioid receptor; conditions: Table 3, reference rows marked e, f, cited from earlier work

μ-opioid receptor (Cavia porcellus, UniProt P97266), sequence (P97266 whole entry, looked up): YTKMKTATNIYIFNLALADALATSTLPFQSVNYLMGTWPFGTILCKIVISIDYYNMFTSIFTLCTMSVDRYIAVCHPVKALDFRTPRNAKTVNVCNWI
T3 sequence (P33535 whole entry): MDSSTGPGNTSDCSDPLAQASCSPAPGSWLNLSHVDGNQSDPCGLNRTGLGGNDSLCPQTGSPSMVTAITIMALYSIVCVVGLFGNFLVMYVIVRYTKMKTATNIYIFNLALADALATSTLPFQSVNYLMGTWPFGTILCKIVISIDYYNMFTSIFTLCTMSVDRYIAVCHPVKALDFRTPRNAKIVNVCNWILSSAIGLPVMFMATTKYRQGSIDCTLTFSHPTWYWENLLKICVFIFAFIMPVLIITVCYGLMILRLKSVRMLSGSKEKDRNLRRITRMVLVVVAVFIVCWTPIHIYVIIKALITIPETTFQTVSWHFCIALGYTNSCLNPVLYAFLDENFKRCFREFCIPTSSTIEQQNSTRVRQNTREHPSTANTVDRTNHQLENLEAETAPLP
T2 sequence (P33533 whole entry): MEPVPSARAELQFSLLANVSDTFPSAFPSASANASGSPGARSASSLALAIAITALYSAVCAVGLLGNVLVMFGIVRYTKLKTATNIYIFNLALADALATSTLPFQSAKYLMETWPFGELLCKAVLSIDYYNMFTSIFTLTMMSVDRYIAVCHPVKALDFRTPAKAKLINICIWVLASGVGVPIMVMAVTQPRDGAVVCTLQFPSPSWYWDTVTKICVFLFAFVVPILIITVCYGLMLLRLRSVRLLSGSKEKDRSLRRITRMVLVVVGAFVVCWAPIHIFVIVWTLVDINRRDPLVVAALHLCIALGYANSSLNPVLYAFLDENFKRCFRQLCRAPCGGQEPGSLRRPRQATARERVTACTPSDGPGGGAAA
T1 sequence (P32300 whole entry): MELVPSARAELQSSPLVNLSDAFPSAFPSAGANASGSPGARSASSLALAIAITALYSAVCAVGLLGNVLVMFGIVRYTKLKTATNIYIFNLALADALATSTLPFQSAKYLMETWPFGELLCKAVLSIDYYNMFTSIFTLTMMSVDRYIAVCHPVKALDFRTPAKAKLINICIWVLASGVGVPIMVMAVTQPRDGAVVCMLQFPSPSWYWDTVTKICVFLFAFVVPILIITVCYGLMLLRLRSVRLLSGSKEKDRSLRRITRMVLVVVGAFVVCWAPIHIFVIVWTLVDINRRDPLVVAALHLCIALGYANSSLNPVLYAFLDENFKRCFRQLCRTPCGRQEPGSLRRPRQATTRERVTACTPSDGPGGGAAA

Row | Compound | IC50 (δ-opioid receptor [1]; agonism, read-out: MVD) [nM] | MVD pA2 (δ-opioid receptor [1]; δ antagonism) | IC50 (μ-opioid receptor [2]; agonism, read-out: GPI) [nM] | pA2(μ)/pA2(δ) (μ-opioid receptor [2]; selectivity of antagonism) | GPI pA2 (μ-opioid receptor [2]; μ antagonism) | inhibition of morphine-induced analgesia [3] | Ki (δ-opioid receptor [4]) [nM] | Ki(δ)/Ki(μ) (μ-opioid receptor [5]; selectivity ratio) | Ki (μ-opioid receptor [5]; versus [3H]DAMGO, rat brain synaptosomes, read-out: Ki(μ)) [nM] | Ki (δ-opioid receptor [6]) [nM] | Ki (μ-opioid receptor [7]; g (no SE, no n)) [nM] | Ki(δ)/Ki(μ) (μ-opioid receptor [7]; g)
1 | C=CCNC(Cc1c(C)cc(O)cc1C)C(=O)NCCCCCCNC(=O)C(Cc1c(C)cc(O)cc1C)NCC=C (stereo not drawn) [Compound 33, Bis-[(N-allyl)Dmt-NH]hexyl] | > 10000 | 6.83 | > 10000 | 2.5 | 7.23 | inhibit morphine-induced analgesia | 77.8 ± 14 | 11 | 6.94 ± 1.4 | – | – | –
2 | H-Dmt-Pro-Phe-Phe-NH2 [[Dmt^1]EM-2] | – | – | – | – | – | – | – | – | – | 28.2 | 0.15 | 188

— US8030341B2, “Dmt-derivative compounds and related compositions and methods of use” (priority 2005, dated 2011)
